Results on 1 compound are retold here after patent US10172905B1, “Treatment of protein degradation disorders” (President and Fellows of Harvard College, priority 2005, dated 2019).

“Also recorded” adds a separate entry of the source.

The experiment deals with T1, HDAC6 (Homo sapiens, UniProt Q9UBN7).
T1 sequence (Q9UBN7 1-1215): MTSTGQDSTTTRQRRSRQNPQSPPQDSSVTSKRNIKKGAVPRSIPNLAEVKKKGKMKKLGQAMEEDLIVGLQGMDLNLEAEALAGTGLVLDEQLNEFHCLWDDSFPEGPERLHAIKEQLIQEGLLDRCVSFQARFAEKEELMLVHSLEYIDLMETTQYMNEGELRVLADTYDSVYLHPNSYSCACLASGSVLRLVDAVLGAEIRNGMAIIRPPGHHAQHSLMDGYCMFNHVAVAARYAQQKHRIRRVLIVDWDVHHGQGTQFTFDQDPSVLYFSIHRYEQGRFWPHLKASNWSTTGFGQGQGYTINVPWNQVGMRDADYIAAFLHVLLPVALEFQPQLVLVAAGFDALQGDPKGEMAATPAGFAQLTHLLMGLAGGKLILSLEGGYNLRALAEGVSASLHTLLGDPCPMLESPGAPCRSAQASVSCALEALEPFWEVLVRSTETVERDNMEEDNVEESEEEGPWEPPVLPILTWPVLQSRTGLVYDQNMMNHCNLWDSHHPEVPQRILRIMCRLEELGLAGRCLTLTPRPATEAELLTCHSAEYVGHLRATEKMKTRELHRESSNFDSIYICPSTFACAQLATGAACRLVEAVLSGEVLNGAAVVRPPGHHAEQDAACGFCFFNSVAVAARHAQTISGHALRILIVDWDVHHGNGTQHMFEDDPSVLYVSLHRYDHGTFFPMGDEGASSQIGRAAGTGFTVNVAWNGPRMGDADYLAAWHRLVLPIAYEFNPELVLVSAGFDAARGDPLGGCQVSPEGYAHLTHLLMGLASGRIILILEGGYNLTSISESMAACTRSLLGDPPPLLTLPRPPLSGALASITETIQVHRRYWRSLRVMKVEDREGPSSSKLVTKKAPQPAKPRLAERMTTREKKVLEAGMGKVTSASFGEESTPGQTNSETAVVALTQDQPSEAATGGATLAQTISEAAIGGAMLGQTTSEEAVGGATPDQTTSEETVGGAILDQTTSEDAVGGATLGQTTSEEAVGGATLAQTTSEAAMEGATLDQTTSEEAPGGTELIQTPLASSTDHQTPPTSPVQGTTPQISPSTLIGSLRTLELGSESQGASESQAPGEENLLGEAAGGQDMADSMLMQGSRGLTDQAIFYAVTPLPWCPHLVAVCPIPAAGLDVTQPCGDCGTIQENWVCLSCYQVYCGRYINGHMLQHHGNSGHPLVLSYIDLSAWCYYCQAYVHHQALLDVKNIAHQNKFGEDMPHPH
Put plainly: Western blotting with anti-acetylated lysine / HDAC6 Abs. The class given is cell-based. The arrangement: MM.1S, U266, INA-6, RPMI8226, and RPMI-LR5 MM cell lines constitutively express HDAC6; endogenous in cells; host or cells: MM.1S, RPMI8226 and other MM cell lines; MM patient BMPCs/PBMCs. As for the experimental part:
MM cells were cultured with Velcade and/or Tubacin; harvested; washed; and lysed using lysis buffer: 50 mM Tris-HCl (pH 7.4), 150 mM NaCl, 1% NP-40, 5 mM EDTA, 5 mM NaF, 2 mM Na3VO4, 1 mM PMSF, 5 μg/ml leupeptine, and 5 μg/ml aprotinin. Cell lysates were subjected to SDS-PAGE, transferred to PVDF membrane (Bio-Rad Laboratories, Hercules, Calif.), and immunoblotted with Abs against specific proteins.
Cells cultured with tubacin and/or bortezomib were harvested; washed, and lysed using lysis buffer: 50 mM Tris-HCl (pH 7.4), 150 mM NaCl, 1% NP-40, 5 mM EDTA, 5 mM NaF, 1 mM Na3VO4, 1 mM PMSF, 5 μg/ml leupeptine, and 5 μg/ml aprotinin. Whole cell lysates were subjected to SDS-PAGE, transferred to nitrocellulose membrane (Bio-Rad Laboratories, Hercules, Calif.), and immunoblotted with specific Abs (31). Western blotting was done using anti-HDAC6, acetylated lysine, acetylated histone H3, acetylated histone H4, ubiquitin (Ub), phospho-SAPK (JNK), caspase-8 caspase-9, caspase-3, and PARP Abs (Cell Signaling, Beverly, Mass.); with anti-α-tubulin Ab (Santa Cruz Biotechnology, Santa Cruz, Calif.); as well as with anti-dynein Ab (Sigma, Saint Louis, Mo.). For immunoprecipitation, whole cell lysates were incubated with anti-Ub or dynein Abs overnight at 4° C., and then incubated with protein A/G PLUS-Agarose (Santa Cruz Biotechnology) for 2 h at 4° C., as in our prior study (31). Immunoprecipitates were then subjected to Western blotting for detection of HDAC6 and dynein.
On the technique in general: In western blotting, separated proteins are transferred to a membrane and probed.

Consider `O=C(CCCCCCC(=O)Nc1ccc([C@H]2O[C@@H](CSc3nc(-c4ccccc4)c(-c4ccccc4)o3)C[C@@H](c3ccc(CO)cc3)O2)cc1)NO` [tubacin], for which, for the setting “MM cell lines (MM.1S, RPMI8226), tubacin up to 5 μM, 24 h”, the “acetylation of α-tubulin” value is “significantly induces aceylation of α-tubulin in a dose-dependent fashion; also recorded: causes tubulin hyperacetylation; also recorded: specifically induces acetylation of t-tubulin in a dose-dependent fashion; also recorded: specifically induces acetylation of α-tubulin”. In addition, the “acetylation of tubulin in BMPCs” value (tubacin 5 μM, 12 h, BMPCs of an MM patient) is “markedly enhanced”. Further, the “acetylation of tubulin in PBMCs” value (tubacin 5 μM, 12 h, PBMCs of the same MM patient) is reported as “but not in PBMCs”. In addition, the “time of peak acetylation of α-tubulin” value (tubacin 5 μM, RPMI8226 cells) is reported as 12 h. The “expression of HDAC6” value (tubacin treatment (data not shown)) was “not altered”.
